Measurements from US5610174A, “Use of α1A -selective adrenoceptor agonists for the treatment of urinary incontinence” (priority 1995, dated 1997).

Assays:
[1] = target: T1, female dog urethra (α1-adrenoceptor) (Canis lupus, UniProt A0A8I3NK63); experiment: Contractile study in isolated female dog urethra; conditions: for pEC50 Urethra: agonist contraction
T1 sequence (A0A8I3NK63 1-466): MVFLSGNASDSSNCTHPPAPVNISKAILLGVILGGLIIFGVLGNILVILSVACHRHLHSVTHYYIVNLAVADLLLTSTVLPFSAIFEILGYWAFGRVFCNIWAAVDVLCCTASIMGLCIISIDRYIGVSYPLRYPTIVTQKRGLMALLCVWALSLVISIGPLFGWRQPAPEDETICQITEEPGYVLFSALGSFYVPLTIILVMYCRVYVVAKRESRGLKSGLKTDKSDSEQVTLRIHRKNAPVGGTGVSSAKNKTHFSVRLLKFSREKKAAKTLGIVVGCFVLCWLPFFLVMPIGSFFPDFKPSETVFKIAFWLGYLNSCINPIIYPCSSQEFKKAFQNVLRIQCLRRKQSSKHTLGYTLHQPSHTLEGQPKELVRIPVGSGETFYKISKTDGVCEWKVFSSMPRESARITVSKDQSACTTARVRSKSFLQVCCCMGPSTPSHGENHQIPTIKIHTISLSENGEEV
Text: (§1) In addition, similar studies were done using bladder neck tissue from female dogs. In order to identify the specific receptor subtype in each tissue, the pharmacological profile was compared to the profiles for these same drugs at the cloned human α1A, α1B, or α1C subtypes.
(§2) Tissue samples from the proximal urethra of male humans and male and female rabbits, as well as tissue samples from both the proximal urethra and bladder neck of male and female dogs were cut into transverse strips (3×10 mm) and suspended under 0.5 g tension in Krebs' physiological buffer at 37° C. To determine agonist potency (pEC50 )and antagonist affinity constants (pKB), concentration-effect curves to the non-selective agonist phenylepherine were constructed in the absence and in the presence of increasing concentrations of the antagonist. Up to four sequential curves were constructed in each tissue. Antagonists were allowed to equilibrate for 1h before each concentration-effect curve, and the drugs were completely washed out in between successive curves. In each experiment, one tissue served as a "time control", in which no antagonist was added so that changes in tissue sensitivity could be assessed as a function of time. […] In instances in which a single concentration of antagonist was used, pKB values were determined by the equation: […], where CR is defined as the ratio of the agonist EC50 in the presence of the antagonist to that in the absence of the antagonist.

[2] = target: T2, human histamine H2 receptor (Homo sapiens, UniProt P25021); experiment: Radioligand binding at cloned human histamine H2; conditions: [3H]tiotidine
T2 construct: expressed in transfected cells; host or cells: COS-7 (plasmid pcEXV-H2, ATCC 75345)
Method: Human Histamine H2 Receptor
The coding sequence of the human H2 receptor was obtained from a human placenta genomic library, and cloned into the cloning site of PCEXV-3 eukaryotic expression vector. The plasmid DNA for the H2 receptor is designated pcEXV-H2, and was deposited on Nov. 6, 1992 under ATCC Accession No. 75345. This construct was transfected into COS-7 cells by the DEAE-dextran method. Cells were harvested after 72 hours and lysed by sonication in 5 mM Tris-HCl, 5 mM EDTA, pH 7.5. The cell lysates were centrifuged at 1000 rpm for 5 min at 4° C., and the supernatant was centrifuged at 30,000×g for 20 min at 4° C. The pellet was suspended in 37.8 mM NaHPO4, 12.2 mM K2PO4, pH 7.5. The binding of the histamine H2 antagonist [3H] tiotidine (5 nM, specific activity: about 70 Ci/mM) was done in a final volume of 0.25 ml and incubated at room temperature for 60 min. Nonspecific binding was determined in the presence of 10 μM histamine. The bound radioligand was separated by filtration through GF/B filters using a cell harvester.

[3] = target: T3, dog BN, male (α1-adrenoceptor) (Canis lupus, UniProt A0A8I3NK63); experiment: Contractile study in isolated male dog bladder neck; conditions: versus phenylephrine-induced contraction
T3 sequence (A0A8I3NK63 1-466): T1 sequence (A0A8I3NK63 1-466)
Text: as §1, §2

[4] = target: T4, rabbit urethra, male (α1-adrenoceptor) (Oryctolagus cuniculus, UniProt O02824); experiment: Contractile study in isolated male rabbit urethra; conditions: versus phenylephrine-induced contraction
T4 sequence (O02824 1-466): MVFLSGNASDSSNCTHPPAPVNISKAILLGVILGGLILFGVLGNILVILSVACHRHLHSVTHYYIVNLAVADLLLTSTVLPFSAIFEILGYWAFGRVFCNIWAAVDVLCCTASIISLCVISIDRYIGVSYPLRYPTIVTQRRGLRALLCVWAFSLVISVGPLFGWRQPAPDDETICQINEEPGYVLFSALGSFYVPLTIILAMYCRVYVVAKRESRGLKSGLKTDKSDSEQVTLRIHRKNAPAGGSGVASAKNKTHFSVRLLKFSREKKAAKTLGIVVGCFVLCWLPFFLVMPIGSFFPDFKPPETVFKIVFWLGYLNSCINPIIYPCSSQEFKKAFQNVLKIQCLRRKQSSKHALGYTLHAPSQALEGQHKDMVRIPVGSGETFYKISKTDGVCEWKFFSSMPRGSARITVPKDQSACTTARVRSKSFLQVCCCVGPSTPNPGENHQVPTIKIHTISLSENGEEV
Text: as §1, §2

[5] = target: T5, rabbit urethra, female (α1-adrenoceptor) (Oryctolagus cuniculus, UniProt O02824); experiment: Contractile study in isolated female rabbit urethra; conditions: versus phenylephrine-induced contraction; read-out: pKB Rabbit Urethra Female (converted)
T5 construct: proximal urethra of male humans and male and female rabbits; from tissue; host or cells: rabbit proximal urethra strips, male or female
T5 sequence (O02824 1-466): T4 sequence (O02824 1-466)
Text: as §1, §2

T2 sequence (P25021 whole entry): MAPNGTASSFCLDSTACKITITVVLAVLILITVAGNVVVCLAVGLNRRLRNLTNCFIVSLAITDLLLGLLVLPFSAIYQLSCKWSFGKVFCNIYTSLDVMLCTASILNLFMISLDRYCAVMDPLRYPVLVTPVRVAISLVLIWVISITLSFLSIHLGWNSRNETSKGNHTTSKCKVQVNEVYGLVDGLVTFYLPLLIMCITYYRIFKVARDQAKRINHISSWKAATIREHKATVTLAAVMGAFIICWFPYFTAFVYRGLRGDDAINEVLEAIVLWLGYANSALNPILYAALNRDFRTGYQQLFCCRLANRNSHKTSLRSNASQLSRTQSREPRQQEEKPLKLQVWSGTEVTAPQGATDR

Structure (SMILES) | sensitivity of the contraction to prazosin, urethra [1] | pEC50 Urethra [1] | pKB Dog BN Male [3] | pKB Rabbit Urethra Male [4] | Kb [5] [nM] | further results
CS(=O)(=O)Nc1c(O)ccc2c1CCCC2C1=NCCN1 (racemic) [Compound A-61603, (±)-N-[5-(4,5-Dihydro-1H-imidazol-2-yl)-2-hydroxy-5,6,7,8-tetra-hydronaphthalen-1-yl]methanesulfonamide] | highly sensitive to prazosin | 6.7 |  |  |  | 
COc1ccc(SC)c2c1C[C@@H]1[C@@H](C2)OCCN1C (relative stereo) [SDZ NVI-085, (±)-trans-4-Methyl-6-methoxy-9-thiomethoxy-3,4,4a, 5,10,10a-hexahydro-2H-naphtho[2,3-b][1,4]oxazine] |  |  |  |  |  | Ki ([2]; read-out: pKi H2 (converted)): 6310 nM
COc1cc2c(cc1OC)CN(c1cc(N)c3cc(OC)c(OC)cc3n1)CC2 [Abanoquil, 2-(6,7-Dimethoxy-3,4-dihydro-1H-isoquinolin-2-yl)-6,7-dimethoxyquinolin-4-ylamine hemifumarate hydrate] |  |  | 8.6 | 8.7 | 2 | 
COc1ccccc1N1CCN(CCCNc2c(C)c(=O)n(C)c(=O)n2C)CC1 [Compound 5-MU] |  |  | 8.7 | 7.8 | 39.8 | 
CNCCc1ccc(O)c(NS(C)(=O)=O)c1 [SK&F 102652] | highly sensitive to prazosin | 6.0 |  |  |  | pKi H2 [2]: 4.6
